# Source: patent US20220151229A1, “Synergistic Herbicidal Combinations” (Clariant International Ltd., priority 2019, published 2022)
# What was measured:
# Format in all cases: in vivo
# Brassica napus - BRSNW = assay: Greenhouse post-emergence herbicide trial, Brassica napus; conditions: 200 L/ha, Iodosulfuron-methyl-sodium 10 g Al/ha
# Source text: (§1) Standard post emergence herbicide application procedures were used, as described below, to apply inventive compounds in combination with sulfonylurea herbicides.
# (§2) Seed of monocotyledonous and dicotyledonous harmful plants such as Brassica napus (BRSNW) Abutilon theophrasti (ABUTH), Alopecurus myosuroides (ALOMY), Amaranthus retroflexus (AMARE), Digitaria Sanguinalis (DIGSA), Echinochloa crus-galli (ECHCG), Erigeron canadensis (ERICA), Galium aparine (GALAP), Lolium perenne (LOLPE), Sectaria viridis (SETVI), Solanun nigrum (SOLNI), Viola arvensis (VIOAR) were sowed in 18 cm^2 pots. The plants were placed in a greenhouse under controlled environmental conditions, and sub-irrigation. About one week after emergence, seedlings were thinned as needed, including removal of any unhealthy or abnormal plants, to create a uniform series of test pots.
# (§3) The plants were maintained for the duration of the test in the greenhouse, where they received a mean of 70 μmol m-2 s-1 of light per day/night. Temperatures averages about 24° C. during the day and about 20° C. during the night. Plants were sub-irrigated throughout the test to ensure adequate soil moisture levels.
# (§4) Pots were assigned to different treatment in a randomized experimental design. A set of pots was left untreated as a reference against which effects of the treatments could later be evaluated. Application of tested formulations was made in a spray cabin model 01S-15E designed by CheckTec using the following parameters: • Two edge nozzle Lechler OC2, 200 L/ha, 3 bars. • Two edge nozzle Lechler OC3, 500 L/ha, 3 bars.
# (§5) The distance of the nozzle from the plants was between 50 to 53 cm. and the nozzle spacing was 50 cm.
# (§6) After treatment, pots were returned to the greenhouse until ready for evaluation. Evaluations were performed at different times after application (DAT: days after treatment), depending on the experiment.
# (§7) For evaluation of herbicidal effectiveness, all plants in the test were examined by a single technician, who recorded percent control, a visual measurement of the effectiveness of each treatment by comparison with untreated plants. […] The reported % control values represent the average for all replicates of each treatment.
# (§8) Iodosulfuron-methyl-sodium and Nicosulfuron were applied as dilutions of the active ingredient in water.
# Solanum nigrum - SOLNI = assay: Greenhouse post-emergence herbicide trial, Solanum nigrum; conditions: Iodosulfuron-methyl-sodium 10 g Al/ha
# Source text: as §1, §2, §3, §4, §5, §6, §7, §8
# Lolium perenne - LOLPE = assay: Greenhouse post-emergence herbicide trial, Lolium perenne; conditions: 200 L/ha, Iodosulfuron-methyl-sodium 10 g Al/ha
# Source text: as §1, §2, §3, §4, §5, §6, §7, §8
smiles,measurement,setting,value
"COC(=O)c1ccc(I)cc1S(=O)(=O)[N-]C(=O)Nc1nc(C)nc(OC)n1.[Na+] [Iodosulfuron-methyl-sodium, reference compound]",Effectiveness control,Brassica napus - BRSNW; 1 DAT,0.00%
same,Effectiveness control,Brassica napus - BRSNW; 2 DAT,0.00%
same,Effectiveness control,Brassica napus - BRSNW; 7 DAT,6.75%
same,Effectiveness control,Brassica napus - BRSNW; 10 DAT,8.50%
same,Effectiveness control,Brassica napus - BRSNW; 16 DAT,50.75%
same,Effectiveness control,Brassica napus - BRSNW; 22 DAT,99.00%
same,Effectiveness control,Brassica napus - BRSNW; 28 DAT,99.00%
same,Effectiveness control,"Solanum nigrum - SOLNI; 200 L/ha, 1 DAT",0.00%
same,Effectiveness control,"Solanum nigrum - SOLNI; 200 L/ha, 2 DAT",0.00%
same,Effectiveness control,"Solanum nigrum - SOLNI; 200 L/ha, 7 DAT",0.00%
same,Effectiveness control,"Solanum nigrum - SOLNI; 200 L/ha, 15 DAT",12.50%
same,Effectiveness control,"Solanum nigrum - SOLNI; 200 L/ha, 21 DAT",13.75%
same,Effectiveness control,"Solanum nigrum - SOLNI; 500 L/ha, 1 DAT",0.00%
same,Effectiveness control,"Solanum nigrum - SOLNI; 500 L/ha, 2 DAT",0.000%
same,Effectiveness control,"Solanum nigrum - SOLNI; 500 L/ha, 7 DAT",5.00%
same,Effectiveness control,"Solanum nigrum - SOLNI; 500 L/ha, 15 DAT",25.00%
same,Effectiveness control,"Solanum nigrum - SOLNI; 500 L/ha, 21 DAT",47.50%
same,Effectiveness control,Lolium perenne - LOLPE; 1 DAT,0.00%
same,Effectiveness control,Lolium perenne - LOLPE; 2 DAT,0.00%
same,Effectiveness control,Lolium perenne - LOLPE; 7 DAT,0.00%
same,Effectiveness control,Lolium perenne - LOLPE; 10 DAT,0.00%
same,Effectiveness control,Lolium perenne - LOLPE; 16 DAT,0.00%
same,Effectiveness control,Lolium perenne - LOLPE; 22 DAT,0.00%
same,Effectiveness control,Lolium perenne - LOLPE; 28 DAT,0.00%
